# Results published in paper PMC6882468 (Journal of Enzyme Inhibition and Medicinal Chemistry, 2019).
# Tests used:
# p38α MAPK = p38α MAPK (Homo sapiens, UniProt Q16539); test: p38α MAPK inhibition assay in vitro; format: biochemical; conditions: triplicate, read-out: IC50 p38p
# Description: In brief, after mixing the enzyme reagent with the sample, a reaction mixture containing 200 µM biotin-peptide substrate and 600 µM ATP (+100 µCi/mL γ-^32 P-ATP) was added to initiate the reaction. […] Part of the reaction solution was transferred to the well of a streptavidin-coated flash plate, washed in PBS containing 0.01% Tween and sealed. The average value of counts per minute for each group and the IC50 value was calculated.
# The average fluorescence values of each well were calculated and recorded as RFU (Relative Fluorescence Unit) blank control (RFU blank), RFU 100% enzyme activity control (RFU enzyme), RFU positive drug control (RFU drug) and RFU test compound (RFU compound). The inhibition rate is calculated according to the following formula. Inhibition rate (%)= (RFU (enzyme) – RFU (compound/drug) […]) /(RFU (enzyme) – RFU (blank)) * 100%
# The IC50 value of the test compound was calculated by the concentration-inhibition reaction curve and the assays were performed in triplicate.
# COX-2 = target: T1, COX-2 (Homo sapiens, UniProt P35354); test: COX-2 inhibition assay in vitro (COX Inhibitor Screening Kit, fluorometric); conditions: for SI (COX-1/COX-2): IC50 (COX-1)/IC50 (COX-2)
# T1 sequence (P35354 18-604): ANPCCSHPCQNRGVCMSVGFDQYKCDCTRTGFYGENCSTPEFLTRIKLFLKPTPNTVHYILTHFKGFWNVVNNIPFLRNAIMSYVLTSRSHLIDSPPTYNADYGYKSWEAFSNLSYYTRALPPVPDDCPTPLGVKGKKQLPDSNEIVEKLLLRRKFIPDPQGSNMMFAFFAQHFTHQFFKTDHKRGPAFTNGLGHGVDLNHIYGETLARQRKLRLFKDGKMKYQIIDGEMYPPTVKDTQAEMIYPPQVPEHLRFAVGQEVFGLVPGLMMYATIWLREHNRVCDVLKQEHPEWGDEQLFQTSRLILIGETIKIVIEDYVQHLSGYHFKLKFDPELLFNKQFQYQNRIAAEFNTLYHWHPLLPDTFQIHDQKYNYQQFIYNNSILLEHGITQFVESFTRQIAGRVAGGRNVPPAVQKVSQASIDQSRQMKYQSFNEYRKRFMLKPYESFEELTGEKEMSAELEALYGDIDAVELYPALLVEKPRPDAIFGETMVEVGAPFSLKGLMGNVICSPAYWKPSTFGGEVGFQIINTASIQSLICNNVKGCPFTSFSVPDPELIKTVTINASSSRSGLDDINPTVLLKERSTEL
# COX-1 = target: T2, COX-1 (Ovis aries, UniProt P05979); test: COX-1 inhibition assay in vitro (COX Inhibitor Screening Kit, fluorometric); format: biochemical
# T2 construct: purchased BioVision, Inc
# T2 sequence (P05979 25-600): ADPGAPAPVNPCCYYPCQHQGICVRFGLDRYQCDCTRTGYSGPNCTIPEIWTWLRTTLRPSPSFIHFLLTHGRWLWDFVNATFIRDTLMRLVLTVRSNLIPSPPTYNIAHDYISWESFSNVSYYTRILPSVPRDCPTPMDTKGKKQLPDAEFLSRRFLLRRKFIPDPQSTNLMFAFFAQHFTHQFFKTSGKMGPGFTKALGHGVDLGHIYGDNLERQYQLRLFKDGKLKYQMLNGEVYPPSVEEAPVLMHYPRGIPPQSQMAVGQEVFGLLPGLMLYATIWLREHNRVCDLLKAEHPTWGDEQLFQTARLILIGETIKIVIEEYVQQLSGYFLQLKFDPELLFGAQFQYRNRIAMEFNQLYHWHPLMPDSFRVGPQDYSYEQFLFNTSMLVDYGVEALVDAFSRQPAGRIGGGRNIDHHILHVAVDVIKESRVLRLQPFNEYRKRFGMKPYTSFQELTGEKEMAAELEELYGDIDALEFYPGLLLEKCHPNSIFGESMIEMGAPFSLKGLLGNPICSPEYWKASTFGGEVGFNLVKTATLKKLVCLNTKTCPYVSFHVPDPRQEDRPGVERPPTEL
# Description: Simply, different concentrations of the test compound solution were added to the mixed solution containing COX-1/COX-2 enzyme (10 µL) and Assay Buffer (960 µL, 0.1 M Tris-HCl pH 8.0 containing 5 µM EDTA and 2 µM phenol). […] The IC50 values were calculated as described above.
# [1] = test system: DNFB-induced mouse model of allergic contact dermatitis; test: DNFB-induced mouse model of allergic contact dermatitis (ear swelling); format: in vivo, Male ICR mice; conditions: for Swelling degree / Inhibition (%) of ear swelling: mice, 5 mg/kg intragastric once a day for 6 days; for Swelling degree: ear slices weighed 24 h after DNFB challenge, Mean ± SD, n = 6; for Inhibition (%) of ear swelling: vs model group; for in vivo inhibitory activity, in words: p.o. 5 mg/kg, p < 0.01
# Description: Male ICR mice (20 ± 2 g) were obtained from the Experimental Animal Centre of Anhui Medical University (Hefei, China). The mice reared in a pathogen-free setting (23 ± 2 °C, 55 ± 5% humidity) with free access to water and pelleted food throughout the experimental cycle. All experimental procedures performed in accordance with guide for the Care and Use of Laboratory Animals (National Research Council, 1996) and were approved by the Experimental Animal Ethics Committee of Anhui University of Chinese Medicine (Hefei, China). After 7 days acclimatisation, the mice were randomly divided into control group, ACD model group, dexamethasone positive control group and 20 compound groups, six in each group. The control group and the model group were given the same dose of the vehicle, the positive control group was given dexamethasone 0.5 mg/kg, and the test compound groups were given compound 5 mg/kg, all of which were given by intragastric administration and were administered once a day for 6 days. Except for the control group, the 50 µL of 1% DNFB (in acetone/olive oil 4:1) was administered to the stripped epidermis, and repeated the next day. After 6 days of drug treatment, 10 µL of 1% DNFB acetone olive oil solution was applied on both sides of the right ear to stimulate inflammation, and equivalent acetone olive oil solution was applied on the left ear for comparison. […] Calculation was carried out according to the following equations. Swelling degree (mg) = MR – ML Inhibitory rate of ear swelling (%)=((MR – ML) model – (MR – ML) treated)/(MR – ML) model ×100% MR=Average weight of the right ear slices;ML= Average weight of the left ear slices […] Dexamethasone (DEX) at a p.o. dose of 0.5 mg/kg was employed as the positive control. After the mice were sacrificed, the swelling degree and inhibition rate were calculated by weighing the same part of both ears.
# p38α = test system: p38α; design: method as in PMID 17664068; conditions: Figure 1; cited from earlier work
# p38α MAPK, sequence (Q16539 whole entry): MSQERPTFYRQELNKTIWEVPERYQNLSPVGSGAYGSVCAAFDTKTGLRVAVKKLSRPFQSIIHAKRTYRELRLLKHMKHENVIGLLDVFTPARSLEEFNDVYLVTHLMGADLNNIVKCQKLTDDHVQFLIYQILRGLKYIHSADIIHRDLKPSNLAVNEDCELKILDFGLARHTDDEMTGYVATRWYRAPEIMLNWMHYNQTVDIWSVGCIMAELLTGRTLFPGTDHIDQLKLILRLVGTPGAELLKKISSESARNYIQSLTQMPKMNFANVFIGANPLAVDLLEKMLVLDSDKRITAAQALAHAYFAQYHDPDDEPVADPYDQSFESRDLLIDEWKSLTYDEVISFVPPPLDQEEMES
IC50 (p38α MAPK) [nM],IC50 (COX-2) [nM],SI (COX-1/COX-2) (COX-2),IC50 (COX-1) [nM],SMILES,Swelling degree [1] [mg],Inhibition (%) of ear swelling [1] [%],"in vivo inhibitory activity, in words [1]",IC50 (p38α) [nM]
3410 ± 220,842 ± 62,1.41,1190 ± 80,"CC(=O)c1ccccc1C(=O)N1CCN(Cc2cccc([N+](=O)[O-])c2)CC1 [Compound 6f, 1–(2-(4–(3-Nitrobenzyl)piperazine-1-carbonyl)phenyl)ethan-1-one]",9.9 ± 2.9,39.6,significant inhibitory activity,–
8490 ± 570,22 ± 3,192.27,4230 ± 230,"CC(=O)c1ccccc1C(=O)N1CCN(Cc2ccc(F)cc2)CC1 [Compound 6j, 1–(2-(4–(4-Fluorobenzyl)piperazine-1-carbonyl)phenyl)ethan-1-one]",10.4 ± 3.1,36.6,significant inhibitory activity,–
–,–,–,–,COc1cc2[nH]ccc2cc1C(=O)N1CCN(Cc2ccccc2)CC1 [Compound 2],–,–,–,950
